We go through five compounds from PubChem BioAssay AID1963428 (Molecular Pharmacology Branch, DTP, NCI, 2024).

This assay concerns 171881-019-R-J1-PDC complex spheroid growth, % test/control. In words: Anticancer human tumor 171881-019-R-J1-PDC patient-derived invasive breast carcinoma cell line growth inhibition [Asc]. As to conditions: for viability, T/C: stronger effect = lower value. As to the method:
Multicellular complex tumor spheroid response to apoptosis pathway targeting inhibitors Alrizomadlin, Pelcitoclax, and Dasminapant in combination with a variety of drugs and investigational agents in selected tumor cell lines
The MDM2 inhibitor alrizomadlin, the Bcl-2/Bcl-xL inhibitor pelcitoclax, and the IAPs inhibitor dasminapant were evaluated both individually and in combination with standard of care and investigational anticancer small molecules within a complex spheroid model of solid tumors. . Complex spheroids include a stromal component modeled by human endothelial cells (HUVEC) and fibroblasts modeled by human mesenchymal stem cells (MSCs). The concentration ranges selected for each drug and investigational agent were based upon clinically achievable concentrations if the clinical Cmax of the agent was known.
Compounds. The drugs and investigational agents: alrizomadlin (APG-115; NSC831270), pelcitoclax (APG-1252; NSC835773), dasminapant (APG-1387;NSC834197), TAK-243 (NSC785004), copanlisib (NSC809693), olaparib (NSC753686), talazoparib (NSC767125), cobimetinib (NSC 768068), eltanexor (KPT-8602, NSC 794443), abemaciclib (NSC 768073), sotorasib (NSC818433), adagrasib (NSC 831453), MRTX-1133 (NSC 836407), Iadademestat (ORY1001, NSC 806812), and RMC-4630 (NSC839698), were obtained from the NCI Developmental Therapeutics Program Chemical Repository. The FDA-approved anticancer drug set is available from the Developmental Therapeutics Program at https://dtp.cancer.gov/organization/dscb/obtaining/available plates.htm. […] The stock solutions were prepared in dimethyl sulfoxide (DMSO, Sigma-Aldrich, St. Louis, MO, cat. D2650) at 800-fold the tested concentration and stored at -70 degrees C prior to their use. All drugs and investigational agents were tested over a range starting from a high concentration at or near the clinical Cmax and decreasing in half-log increments. If the clinical Cmax for an agent had not been determined, the highest concentration tested was 10 microM.
The patient-derived cancer (PDC) cell lines include five colon adenocarcinomas: 186277-243-T-J2-PDC, 616215-338-R-J1-PDC, 439559-082-T-J2-PDC, 463943-066-T-J2-PDC, and 519858-162-T-J1-PDC; three pancreatic carcinomas: 323965-272-R-J2-PDC, 521955-158-R6-J3-PDC, and 521955-158-R2-J5-PDC; two uterine sarcomas: 327498-152-R-J2-PDC and 993429-296-R-J1-PDC; two rhabdomyosarcomas: 755483-174-R-J1-PDC and 772245-204-R-J1-PDC; two soft tissue sarcomas: 126254-015-R-J1-PDC and 494315-158-R-J1-PDC; two malignant fibrous histiocytomas: 317291-083-R-J1-PDC and 596521-263-R-J1-PDC; two breast carcinomas: 171881-019-R-J1-PDC and 885512-296-R-J2-PDC; and one ovarian carcinoma: 6556581-035-R-J-PDC were obtained from the NCI PDMR, (https://pdmr.cancer.gov). The established cell lines HSSY-2 synovial sarcoma (RRID:CVCL 8719), SYO-1 synovial sarcoma (RRID:CVCL_7146), MPNST malignant peripheral neural sheath tumor were obtained from the Sloan Kettering Institute. The following established cell lines were purchased from the American Type Culture Collection (ATCC, Manassas, VA), Sor the received from the NCI repository:, PANC-1 pancreatic carcinoma (CRL-1469, RRID:CVCL_0480), OVCAR-5 ovarian carcinoma (RRID:CVCL_1628), OVCAR-8 ovarian carcinoma (RRID:CVCL_1629), , MCF-7 breast carcinoma (CRL-12584, RRID:CVCL_0031), MDA-MB-231 breast carcinoma (CRL-12532, RRID:CVCL_0062), NCI-H1876 small cell lung carcinoma (CRL-5902, RRID:CVCL_1503), NCI-H510A small cell lung carcinoma (HTB-184, RRID:CVCL_1565), NCI-H1417 (CRL-5869, RRID:CVCL_1469), and NCI-H196 small cell lung carcinoma (CRL-5823, RRID:CVCL_1509). Dr. Peter Houghton (Greehey Children's Cancer Research Institute, University of Texas Health Science Center, San Antonio, TX) provided Rh-18 rhabdomyosarcoma (RRID:CVCL_1659). Pooled donor human umbilical vein endothelial cells (HUVEC, Lonza, cat. CC-2519) and human mesenchymal stem cells (hMSC, Lonza, cat. PT-2501) were purchased from Lonza (Walkersville, MD).
Cell Culture. […]

The mark [1] stands for this setting: curve of first compound, second compound 0.01 µM.
The mark [2] stands for this setting: curve of first compound, second compound 0.0316 µM.
Setting [3] is: curve of first compound, second compound 0.1 µM.
Where [4] appears, read: curve of first compound, second compound 0.316 µM.
Setting [5] is: curve of first compound, second compound 1 µM.
[6] abbreviates: second compound 0.01 µM, first compound 0.0316 µM.
Setting [7] is: second compound 0.01 µM, first compound 0.1 µM.
[8] abbreviates: second compound 0.01 µM, first compound 0.316 µM.
Where [9] appears, read: second compound 0.01 µM, first compound 1 µM.
[10] abbreviates: second compound 0.0316 µM, first compound 0.0316 µM.
Where [11] appears, read: second compound 0.0316 µM, first compound 0.1 µM.
[12] abbreviates: second compound 0.0316 µM, first compound 0.316 µM.
[13] abbreviates: second compound 0.0316 µM, first compound 1 µM.
[14] abbreviates: second compound 0.1 µM, first compound 0.0316 µM.
The mark [15] stands for this setting: second compound 0.1 µM, first compound 0.1 µM.
[16] abbreviates: second compound 0.1 µM, first compound 0.316 µM.
Where [17] appears, read: second compound 0.1 µM, first compound 1 µM.
Setting [18] is: second compound 0.316 µM, first compound 0.0316 µM.
The mark [19] stands for this setting: second compound 0.316 µM, first compound 0.1 µM.
The mark [20] stands for this setting: second compound 0.316 µM, first compound 0.316 µM.
Setting [21] is: second compound 0.316 µM, first compound 1 µM.
Setting [22] is: second compound 1 µM, first compound 0.0316 µM.
Where [23] appears, read: second compound 1 µM, first compound 0.1 µM.
Setting [24] is: second compound 1 µM, first compound 0.316 µM.
Where [25] appears, read: second compound 1 µM, first compound 1 µM.

Values joined by “and” are separate entries in the source; they are usually repeats but may differ in a detail not shown here. Identical values can stand only once.
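Throughout, for viability, T/C: spheroids exposed to compounds for 7 days.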

For the compound `CCN1CCN(Cc2ccc(Nc3ncc(F)c(-c4cc(F)c5nc(C)n(C(C)C)c5c4)n3)nc2)CC1`, the viability, T/C is 97.1% and 108% and 114% (compound 0.00316 µM); 79.1% and 101% (2×) (compound 0.01 µM); 97.8% and 111% and 105% (compound 0.0316 µM); 109% and 104% and 128% (compound 0.1 µM); 110% and 120% and 131% (compound 0.316 µM); 130% and 141% and 128% (compound 1 µM). The concentration for half-maximal inhibition (IC50) (curve of compound) was > 1000 nM.
Take `C#Cc1c(F)ccc2cc(O)cc(-c3ncc4c(N5CC6CCC(C5)N6)nc(OCC56CCCN5CC(F)C6)nc4c3F)c12` (configuration not stated): the viability, T/C is, setting by setting: (compound 0.0316 µM) 105% and 82.7% and 103%; (compound 0.1 µM) 107% and 98% and 102%; (compound 0.316 µM) 129% and 115% and 117%; (compound 1 µM) 229% and 139% and 208%; (compound 3.16 µM) 271% and 153% and 240%; (compound 10 µM) 281% and 162% and 190%. The IC50 (curve of compound) was > 10000 nM.
Turning to `O=C(c1cc(Cc2n[nH]c(=O)c3ccccc23)ccc1F)N1CCN(C(=O)C2CC2)CC1` + CNC(C)C(=O)NC1CN(S(=O)(=O)c2cccc(S(=O)(=O)N3CCC4CCC(C(=O)NC(c5ccccc5)c5ccccc5)N4C(=O)C(NC(=O)C(C)NC)C3)c2)CCC2CCC(C(=O)NC(c3ccccc3)c3ccccc3)N2C1=O, the IC50 under setting [1] is > 10000 nM; the half-maximal inhibitory concentration (IC50) under setting [2] is > 10000 nM; the concentration for half-maximal inhibition (IC50) under setting [3] is > 10000 nM; the IC50 under setting [4] is > 10000 nM; the half-inhibitory concentration (IC50) under setting [5] is > 10000 nM. Also, the viability, T/C reads like this: under setting [6], 101%; under setting [7], 107%; under setting [8], 109%; under setting [9], 118%; (second compound 0.01 µM, first compound 3.16 µM) 104%; (second compound 0.01 µM, first compound 10 µM) 128%. Moreover, the viability, T/C reads like this: under setting [10], 100%; under setting [11], 105%; under setting [12], 93.3%; under setting [13], 128%; (second compound 0.0316 µM, first compound 3.16 µM) 107%; (second compound 0.0316 µM, first compound 10 µM) 106%. Moreover, the viability, T/C runs as follows: under setting [14], 108%; under setting [15], 89.4%; under setting [16], 106%; under setting [17], 104%; (second compound 0.1 µM, first compound 3.16 µM) 105%; (second compound 0.1 µM, first compound 10 µM) 112%. The viability, T/C is 95% under setting [18]; 96.2% under setting [19]; 99.7% under setting [20]; 119% under setting [21]; 114% (second compound 0.316 µM, first compound 3.16 µM); 122% (second compound 0.316 µM, first compound 10 µM). The viability, T/C runs as follows: under setting [22], 116%; under setting [23], 113%; under setting [24], 89.4%; under setting [25], 111%; (second compound 1 µM, first compound 3.16 µM) 103%; (second compound 1 µM, first compound 10 µM) 128%.
For `COc1c(OCCCN2CCOCC2)ccc2c3n(c(=NC(=O)c4cnc(N)nc4)nc12)CCN3` + CNC(C)C(=O)NC1CN(S(=O)(=O)c2cccc(S(=O)(=O)N3CCC4CCC(C(=O)NC(c5ccccc5)c5ccccc5)N4C(=O)C(NC(=O)C(C)NC)C3)c2)CCC2CCC(C(=O)NC(c3ccccc3)c3ccccc3)N2C1=O, the 50% inhibitory concentration (IC50) by setting is: under setting [1], 32.4 nM; under setting [2], 30.8 nM; under setting [3], 29.6 nM; under setting [4], 28.1 nM; under setting [5], 28.7 nM. Also, the viability, T/C runs as follows: (second compound 0.01 µM, first compound 0.00316 µM) 196%; (second compound 0.01 µM, first compound 0.01 µM) 133%; under setting [6], 49.7%; under setting [7], 15.9%; under setting [8], 4.61%; under setting [9], 2.61%. Moreover, the viability, T/C (second compound 0.0316 µM, first compound 0.00316 µM) was 215%; the viability, T/C (second compound 0.0316 µM, first compound 0.01 µM) was 137%; the viability, T/C under setting [10] was 46.5%; the viability, T/C under setting [11] is 15.6%; the viability, T/C under setting [12] is 4.08%; the viability, T/C under setting [13] was 1.97%. Besides, the viability, T/C runs as follows: (second compound 0.1 µM, first compound 0.00316 µM) 203%; (second compound 0.1 µM, first compound 0.01 µM) 135%; under setting [14], 43.8%; under setting [15], 13.1%; under setting [16], 3.67%; under setting [17], 2.63%. Also, the viability, T/C by setting is: (second compound 0.316 µM, first compound 0.00316 µM) 182%; (second compound 0.316 µM, first compound 0.01 µM) 122%; under setting [18], 41%; under setting [19], 11.9%; under setting [20], 3.14%; under setting [21], 1.94%. For the same compound, the viability, T/C reads like this: (second compound 1 µM, first compound 0.00316 µM) 210%; (second compound 1 µM, first compound 0.01 µM) 125%; under setting [22], 43.8%; under setting [23], 10.4%; under setting [24], 3.22%; under setting [25], 2.13%.
As for `CCN1C(C(=O)NC23CCC(C(=O)O)(CC2)CC3)C(c2cccc(Cl)c2F)C2(C(=O)Nc3cc(Cl)ccc32)C12CCCCC2` (configuration not stated), under “compound 0.00949 µM”, the viability, T/C is 76.5% and 112%. The IC50 is, setting by setting: (compound alone, run of 09/27/2022) > 3000 nM; (curve of compound) > 3000 nM.

By viability, T/C is commonly meant the ratio of treated to control. Broadly, the IC50 is the concentration that gives 50% inhibition.
